“Also recorded” adds a separate entry of the source.
Experiments:
[1] = tested on: gp120 interaction with sCD4; settings: read-out: IC50(SPR) sCD4, shown for comparison, ref ([19]) and ([30]); cited from earlier work
mutant gp120 (S375W) = settings: ref ([15]); cited from earlier work
[2] = tested on: gp120 interaction with mAb 17b; settings: read-out: IC50(SPR) mAb 17b, shown for comparison, ref ([19]) and ([30]); cited from earlier work
[3] = tested on: mutant gp120 (I423P) binding of F105 antibody; settings: ref ([15], [48]); cited from earlier work
S375A gp120 = S375A gp120 (Human immunodeficiency virus type 1 group M subtype B, UniProt P35961, S370A); type: binding, HIV-1; settings: immobilized S375A gp120, SPR
[4] = target: S375A gp120 interaction with sCD4 (Human immunodeficiency virus type 1 group M subtype B, UniProt P35961, S370A); test: SPR KR21/sCD4 competition over immobilized S375A gp120; type: binding, HIV-1; settings: S375A versus WT

Molecule	IC50 [1] [nM]	binding to gp120 with pocket-filling S375W mutation (mutant gp120 (S375W))	inhibition of sCD4 binding to mutant gp120 (S375W) (mutant gp120 (S375W))	IC50 [2] [nM]	inhibition of F105 antibody binding to mutant gp120 (I423P) [3]	direct binding to S375A gp120 (S375A gp120)	reduction in sCD4 inhibitory potency, S375A compared to WT gp120 [4] [fold]
RINNIPWSEAMM [12p1]	1100	completely abrogated	does not inhibit; also recorded: resistant	1600	inhibits	–	–
CC[C@H](C)[C@H](NC(=O)[C@@H](N)CCCNC(=N)N)C(=O)N[C@@H](CC(N)=O)C(=O)N[C@@H](CC(N)=O)C(=O)N[C@H](C(=O)N1C[C@@H](n2cc([C]34[CH]5[CH]6[CH]7[CH]3[Fe]6754389%10[CH]4[CH]3[CH]8[CH]9[CH]4%10)nn2)C[C@H]1C(=O)N[C@@H](Cc1c[nH]c2ccccc12)C(=O)NCCC(=O)N[C@@H](CCCCNC(=O)CCCC[C@@H]1SC[C@@H]2NC(=O)N[C@@H]21)C(=O)NCC(N)=O)[C@@H](C)CC (stereo partly drawn) [KR21, R^1-I^2-N^3-N^4-I^5-X^6-W^7-βA^8-BtLys^9-G^10]	85	–	–	110	–	severely disrupted; also recorded: could not be fitted	20

Reference: article PMC3800186 (Biochemistry, 2013)
